Molecular target: T1, Efl1 wild type in complex with Sdo1 and 60S subunits (Saccharomyces cerevisiae, UniProt P53893)
T1 construct: made in house; host or cells: Efl1: Saccharomyces cerevisiae; Sdo1: Escherichia coli C41; 60S subunits purified from S. cerevisiae strain JD1370
T1 sequence (P53893 1-1110): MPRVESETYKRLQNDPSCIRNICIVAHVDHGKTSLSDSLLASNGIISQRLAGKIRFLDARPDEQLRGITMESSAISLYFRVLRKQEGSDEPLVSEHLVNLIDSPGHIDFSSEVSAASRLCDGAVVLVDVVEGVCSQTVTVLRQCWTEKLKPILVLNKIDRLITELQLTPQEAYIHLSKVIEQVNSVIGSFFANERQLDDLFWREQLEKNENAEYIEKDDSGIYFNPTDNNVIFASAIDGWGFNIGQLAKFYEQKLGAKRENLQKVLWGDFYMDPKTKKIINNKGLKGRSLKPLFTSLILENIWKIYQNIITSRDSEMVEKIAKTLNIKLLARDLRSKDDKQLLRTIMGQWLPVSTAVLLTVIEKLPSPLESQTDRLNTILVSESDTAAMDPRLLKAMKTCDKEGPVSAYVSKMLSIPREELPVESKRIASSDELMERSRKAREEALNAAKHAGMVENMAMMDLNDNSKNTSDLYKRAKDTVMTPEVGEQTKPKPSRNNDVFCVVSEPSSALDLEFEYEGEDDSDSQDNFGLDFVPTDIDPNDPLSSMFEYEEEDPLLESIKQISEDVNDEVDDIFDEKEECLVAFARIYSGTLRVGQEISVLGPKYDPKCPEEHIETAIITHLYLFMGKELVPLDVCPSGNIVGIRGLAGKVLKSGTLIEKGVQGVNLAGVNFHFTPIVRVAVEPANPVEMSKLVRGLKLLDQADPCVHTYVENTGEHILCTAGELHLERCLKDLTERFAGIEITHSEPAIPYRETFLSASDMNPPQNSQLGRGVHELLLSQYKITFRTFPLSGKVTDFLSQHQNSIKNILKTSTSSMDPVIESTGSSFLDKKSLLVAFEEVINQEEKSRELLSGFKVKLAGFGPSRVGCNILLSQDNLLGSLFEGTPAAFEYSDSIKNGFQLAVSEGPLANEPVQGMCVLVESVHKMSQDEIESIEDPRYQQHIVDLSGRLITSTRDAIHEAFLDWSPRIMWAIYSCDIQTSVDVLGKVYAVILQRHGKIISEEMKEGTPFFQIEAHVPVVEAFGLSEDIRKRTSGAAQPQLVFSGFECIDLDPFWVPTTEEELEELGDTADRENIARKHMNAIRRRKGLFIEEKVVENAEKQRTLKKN
T1 sequence (Q07953 1-250 partner): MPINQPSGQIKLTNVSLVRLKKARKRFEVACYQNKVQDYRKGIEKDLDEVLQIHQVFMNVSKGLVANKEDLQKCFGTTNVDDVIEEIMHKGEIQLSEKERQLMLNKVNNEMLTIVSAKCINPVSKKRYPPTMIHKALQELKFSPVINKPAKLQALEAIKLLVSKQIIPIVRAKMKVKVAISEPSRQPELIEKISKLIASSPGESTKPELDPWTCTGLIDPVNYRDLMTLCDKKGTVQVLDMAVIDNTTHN
Assay: Steady state fluorescence binding of mant-GTP to Efl1 wild type in complex with Sdo1 and 60S subunits
Details: 25 °C, one-binding-site model; read-out: dissociation constant (Kd)
Experimental: We measured the binding of different Efl1 constructs present in complex with Sdo1 and 60S subunits to the fluorescence GTP analogue, mant-GTP, by following the increase in the fluorescence signal after excitation at 355 nm. Fluorescence intensities were plotted as a function of increasing nucleotide concentrations, and the dissociation constant (Kd) was calculated by fitting the data to a one-binding-site model (Supplementary Figure S1B).
Hydrolysis of GTP was measured using the Enzchek Phosphate Assay kit (Molecular Probes) as described by Webb. Standard reactions consisted of 100 µL containing 6 µM of Efl1 R1086Q and Efl1 L910K, 0.3 mM MESG, 1.0 U purine nucleoside phosphorylase (PNP) and the indicated amounts of GTP. […]
Reactions were initiated and the GTPase was added after 3 min. Time courses were followed by recording the change in absorbance at 360 nm in a Cary 60 UV -Vis spectrophotometer (Agilent Technologies). Background absorbance was recorded prior to the addition of the GTPase and subtracted from the sample signals. The slope of the measured time courses corresponded to the GTP hydrolysis rate. […] Data were analysed by nonlinear regression to the M ichaelis-Menten equation with the program Origin Version 5.0 (OriginLab, Co., Northampton, MA). […]
Steady state fluorescence measurements […]
Maximum emission at 440 nm was replotted as a function of nucleotide concentration and analysed

`CNc1ccccc1C(=O)O[C@H]1[C@@H](O)[C@H](n2cnc3c(=O)[nH]c(N)nc32)O[C@@H]1COP(=O)(O)OP(=O)(O)OP(=O)(O)O` [mant-GTP] showed a Kd of 36 µM.
